Numbers after ± are expanded uncertainties.
Experiment: mn = molality of the nth substance listed, in mol/kg
Conditions: 101 kPa, Liquid; for mass density: Pycnometric method; for viscosity: Capillary tube (Ostwald / Ubbelohde) method; for speed of sound: Linear variable-path acoustic interferometer

O=[N+]([O-])[O-].O=[N+]([O-])[O-].[Mg+2] [magnesium nitrate] + O
Conditions | mass density [kg/m3] | speed of sound [m/s] | viscosity [mPa·s]
306.45 K, m1 = 0.0145 | 995.89 ± 0.66 | – | –
306.5 K, m1 = 0.896 | 1083.6 ± 0.7 | – | –
306.5 K, m1 = 3.096 | 1266.4 ± 0.8 | – | –
306.65 K, m1 = 0.5931 | 1054 ± 0.7 | – | –
306.65 K, m1 = 3.501 | 1294.4 ± 0.9 | – | –
306.7 K, m1 = 3.118 | 1267.2 ± 0.8 | – | –
306.7 K, m1 = 3.757 | 1310.9 ± 0.9 | – | –
306.7 K, m1 = 5.134 | 1397 ± 1 | – | –
306.75 K, m1 = 4.728 | 1373.4 ± 1 | – | –
306.8 K, m1 = 3.17 | 1276 ± 0.9 | – | –
307.05 K, m1 = 0.6173 | 1056.6 ± 0.7 | – | –
307.05 K, m1 = 4.883 | 1379.9 ± 1 | – | –
307.25 K, m1 = 1.827 | 1167 ± 0.8 | – | –
307.45 K, m1 = 4.039 | 1327.9 ± 1 | – | –
307.6 K, m1 = 2.584 | 1228.1 ± 0.9 | – | –
307.65 K, m1 = 4.97 | 1385.7 ± 1 | – | –
307.7 K, m1 = 3.704 | 1307.2 ± 0.8 | – | –
307.8 K, m1 = 2.793 | 1243.4 ± 0.8 | – | –
307.9 K, m1 = 1.694 | 1154 ± 0.8 | – | –
307.95 K, m1 = 0.2491 | 1020.1 ± 0.7 | – | –
308.1 K, m1 = 4.403 | 1351 ± 0.9 | – | –
308.15 K, m1 = 0.0145 | – | 1520.8 ± 1.9 | 0.7364 ± 0.0097
308.15 K, m1 = 0.0528 | – | 1522.6 ± 1.9 | 0.745 ± 0.0099
308.15 K, m1 = 0.2491 | – | 1536.2 ± 1.9 | 0.7877 ± 0.01
308.15 K, m1 = 0.3405 | – | 1539.2 ± 1.9 | –
308.15 K, m1 = 0.5931 | – | – | 0.8757 ± 0.011
308.15 K, m1 = 0.6173 | – | 1559.2 ± 1.9 | –
308.15 K, m1 = 0.896 | – | 1578.7 ± 1.9 | –
308.15 K, m1 = 0.9898 | – | 1585.6 ± 1.9 | 1.005 ± 0.013
308.15 K, m1 = 1.262 | – | 1602.4 ± 1.9 | 1.11 ± 0.015
308.15 K, m1 = 1.525 | – | 1621.7 ± 1.9 | –
308.15 K, m1 = 1.827 | – | 1644.8 ± 1.9 | 1.342 ± 0.017
308.15 K, m1 = 2.131 | – | 1666.7 ± 2 | 1.498 ± 0.019
308.15 K, m1 = 2.493 | – | 1688 ± 2 | –
308.15 K, m1 = 2.584 | – | – | 1.777 ± 0.023
308.15 K, m1 = 2.793 | – | 1708.9 ± 2 | –
308.15 K, m1 = 3.096 | – | – | 2.146 ± 0.028
308.15 K, m1 = 3.118 | – | 1728.7 ± 2 | –
308.15 K, m1 = 3.17 | – | 1735.9 ± 2 | –
308.15 K, m1 = 3.329 | – | – | 2.343 ± 0.031
308.15 K, m1 = 3.501 | – | 1752.2 ± 2 | –
308.15 K, m1 = 3.704 | – | – | 2.692 ± 0.035
308.15 K, m1 = 3.757 | – | 1770.5 ± 2 | –
308.15 K, m1 = 4.039 | – | – | 3.089 ± 0.04
308.15 K, m1 = 4.051 | – | 1781.1 ± 2 | –
308.15 K, m1 = 4.285 | – | 1794.4 ± 2 | –
308.15 K, m1 = 4.403 | – | 1800.6 ± 2.1 | –
308.15 K, m1 = 4.728 | – | – | 4.262 ± 0.056
308.15 K, m1 = 4.883 | – | 1826.2 ± 2.1 | –
308.15 K, m1 = 4.907 | – | – | 4.654 ± 0.061
308.15 K, m1 = 5.134 | – | 1838.4 ± 2.1 | –
308.15 K, m1 = 5.282 | – | – | 5.506 ± 0.072
308.35 K, m1 = 0.9898 | 1091.9 ± 0.7 | – | –
308.4 K, m1 = 1.525 | 1138.7 ± 0.8 | – | –
308.45 K, m1 = 1.262 | 1116 ± 0.8 | – | –
308.55 K, m1 = 0.3405 | 1028.5 ± 0.7 | – | –
308.7 K, m1 = 5.282 | 1404.1 ± 1 | – | –
308.75 K, m1 = 3.757 | 1309.6 ± 0.9 | – | –
308.85 K, m1 = 3.096 | 1265 ± 0.8 | – | –
308.85 K, m1 = 4.285 | 1343.6 ± 0.9 | – | –
308.95 K, m1 = 3.118 | 1265.8 ± 0.8 | – | –
309 K, m1 = 0.896 | 1082.4 ± 0.7 | – | –
309.05 K, m1 = 4.728 | 1371.9 ± 1 | – | –
309.25 K, m1 = 2.131 | 1191 ± 0.8 | – | –
309.3 K, m1 = 2.493 | 1218.8 ± 0.9 | – | –
309.35 K, m1 = 4.883 | 1378.4 ± 0.9 | – | –
309.4 K, m1 = 4.051 | 1326.7 ± 0.9 | – | –
309.5 K, m1 = 0.0145 | 994.82 ± 0.66 | – | –
309.5 K, m1 = 0.5931 | 1052.8 ± 0.7 | – | –
309.5 K, m1 = 0.6173 | 1055.5 ± 0.7 | – | –
309.6 K, m1 = 0.0528 | 999.02 ± 0.66 | – | –
309.65 K, m1 = 1.827 | 1165.8 ± 0.8 | – | –
309.75 K, m1 = 4.97 | 1384.3 ± 1 | – | –
309.9 K, m1 = 2.584 | 1226.7 ± 0.9 | – | –
309.95 K, m1 = 3.704 | 1305.7 ± 0.9 | – | –
310.1 K, m1 = 1.694 | 1152.8 ± 0.8 | – | –
310.15 K, m1 = 4.403 | 1349.7 ± 0.9 | – | –
310.7 K, m1 = 0.9898 | 1090.8 ± 0.7 | – | –
310.8 K, m1 = 0.2491 | 1019 ± 0.7 | – | –
310.9 K, m1 = 3.096 | 1263.8 ± 0.8 | – | –
310.95 K, m1 = 1.262 | 1114.7 ± 0.8 | – | –
311 K, m1 = 3.501 | 1291.7 ± 0.9 | – | –
311 K, m1 = 3.757 | 1308.1 ± 0.9 | – | –
311.05 K, m1 = 3.17 | 1273.3 ± 0.9 | – | –
311.2 K, m1 = 3.118 | 1264.5 ± 0.8 | – | –
311.25 K, m1 = 2.131 | 1189.9 ± 0.8 | – | –
311.25 K, m1 = 4.728 | 1370.6 ± 0.9 | – | –
311.35 K, m1 = 5.134 | 1394 ± 0.8 | – | –
311.45 K, m1 = 4.883 | 1377.1 ± 1 | – | –
311.55 K, m1 = 0.896 | 1081.3 ± 0.8 | – | –
311.75 K, m1 = 1.827 | 1164.7 ± 1.1 | – | –
311.9 K, m1 = 4.039 | 1325 ± 0.9 | – | –
311.95 K, m1 = 5.282 | 1402.5 ± 0.9 | – | –
312 K, m1 = 4.97 | 1382.9 ± 0.9 | – | –
312.1 K, m1 = 0.6173 | 1054.3 ± 0.7 | – | –
312.15 K, m1 = 1.694 | 1151.6 ± 0.8 | – | –
312.15 K, m1 = 2.793 | 1240.8 ± 0.9 | – | –
312.25 K, m1 = 0.0528 | 997.99 ± 0.67 | – | –
312.4 K, m1 = 4.403 | 1348.2 ± 0.9 | – | –
312.45 K, m1 = 0.0145 | 993.76 ± 0.67 | – | –
312.95 K, m1 = 1.525 | 1136.3 ± 0.7 | – | –
313.1 K, m1 = 1.262 | 1113.5 ± 0.8 | – | –
313.15 K, m1 = 0.0145 | – | 1532.2 ± 1.9 | 0.6666 ± 0.0088
313.15 K, m1 = 0.0528 | – | 1531.9 ± 1.9 | 0.6778 ± 0.0089
313.15 K, m1 = 0.2491 | – | 1544.5 ± 1.9 | 0.7155 ± 0.0094
313.15 K, m1 = 0.3405 | – | 1546 ± 1.9 | –
313.15 K, m1 = 0.5931 | – | – | 0.7972 ± 0.01
313.15 K, m1 = 0.6173 | – | 1566.4 ± 1.9 | –
313.15 K, m1 = 0.896 | – | 1584.7 ± 1.9 | –
313.15 K, m1 = 0.9898 | – | 1591.3 ± 1.9 | 0.913 ± 0.012
313.15 K, m1 = 1.262 | – | 1607.1 ± 1.9 | 1.008 ± 0.013
313.15 K, m1 = 1.525 | – | 1625.9 ± 1.9 | –
313.15 K, m1 = 1.827 | – | 1647.8 ± 1.9 | 1.305 ± 0.017
313.15 K, m1 = 2.131 | – | 1667.8 ± 2 | 1.364 ± 0.018
313.15 K, m1 = 2.493 | – | 1688.9 ± 2 | –
313.15 K, m1 = 2.584 | – | – | 1.616 ± 0.021
313.15 K, m1 = 2.793 | – | 1709 ± 2 | –
313.15 K, m1 = 3.096 | 1262.3 ± 0.8 | – | 1.947 ± 0.025
313.15 K, m1 = 3.118 | – | 1728.1 ± 2 | –
313.15 K, m1 = 3.17 | – | 1734.7 ± 2 | –
313.15 K, m1 = 3.329 | – | – | 2.128 ± 0.028
313.15 K, m1 = 3.501 | – | 1751.2 ± 2 | –
313.15 K, m1 = 3.704 | – | – | 2.435 ± 0.032
313.15 K, m1 = 3.757 | – | 1767.8 ± 2 | –
313.15 K, m1 = 4.039 | – | – | 2.798 ± 0.036
313.15 K, m1 = 4.051 | – | 1778.4 ± 2 | –
313.15 K, m1 = 4.285 | – | 1791.3 ± 2 | –
313.15 K, m1 = 4.403 | – | 1797.9 ± 2.1 | –
313.15 K, m1 = 4.728 | – | – | 3.817 ± 0.05
313.15 K, m1 = 4.883 | – | 1823.1 ± 2.1 | –
313.15 K, m1 = 4.907 | – | – | 4.176 ± 0.055
313.15 K, m1 = 5.134 | – | 1834.3 ± 2.1 | –
313.15 K, m1 = 5.282 | – | – | 4.924 ± 0.065
313.25 K, m1 = 3.118 | 1263.3 ± 0.8 | – | –
313.25 K, m1 = 4.285 | 1340.7 ± 1.1 | – | –
313.45 K, m1 = 0.2491 | 1017.9 ± 0.7 | – | –
313.5 K, m1 = 2.493 | 1216.4 ± 0.9 | – | –
313.6 K, m1 = 2.131 | 1188.5 ± 0.8 | – | –
313.7 K, m1 = 0.3405 | 1026.4 ± 0.7 | – | –
313.7 K, m1 = 4.883 | 1375.5 ± 0.9 | – | –
313.8 K, m1 = 0.896 | 1080.2 ± 0.8 | – | –
313.8 K, m1 = 4.051 | 1324 ± 0.9 | – | –
314.1 K, m1 = 2.793 | 1239.5 ± 0.9 | – | –
314.15 K, m1 = 3.704 | 1303 ± 0.9 | – | –
314.15 K, m1 = 5.282 | 1401.1 ± 1 | – | –
314.25 K, m1 = 2.584 | 1224.2 ± 0.9 | – | –
314.45 K, m1 = 0.5931 | 1050.6 ± 0.7 | – | –
314.45 K, m1 = 0.6173 | 1053.3 ± 0.7 | – | –
314.5 K, m1 = 1.694 | 1150.4 ± 0.9 | – | –
314.5 K, m1 = 4.403 | 1346.8 ± 1 | – | –

From the NIST ThermoML archive (doi:10.1021/je060107n)
